Measurements as given in patent publication US8071551B2, “Methods and compositions for treating diabetes” (BioHolding, Inc., priority 1999, dated 2011).

Assays:
[1] = system: RCG Neuron (rat cerebral granule) cells; assay: Apoptosis induced by depletion of serum in RCG neuron cells (Hoechst 33258 staining, fluorescence microscope); format: cell-based; conditions: BME without serum, 10 hours, Hoechst dye 33258
Method: RCG neuronal cells are seeded into cell culture dishes in 400 μl cell culture medium (Eagle's basal medium, BME) containing 10% (v/v) FBS. At day two the now conditioned medium is removed and the cells are treated for 10 hours as follows:
Then the medium is replaced with 4% (w/v) paraformaldehyde, incubated for 15 minutes at room temperature, and the cells stained with Hoechst dye 33258 (8 μg/ml) for 15 minutes at room temperature. The apoptosis in the cells is evaluated using a fluorescence microscope by an evaluator blinded to the method of treatment.

[2] = system: Primary rat brain granule cells; assay: Apoptosis associated with serum depletion in primary rat brain granule cells; format: cell-based; conditions: α1-antitrypsin 3.0 mg/ml, one hour pretreatment, medium devoid of fetal bovine serum, 24 hours of culture
Method: Primary rat brain granule cells are pretreated for one hour in the absence or presence of α1-antitrypsin (3.0 mg/ml), followed by replacement of the cell culture medium with either control medium containing 10% (vol/vol) fetal bovine serum, medium devoid of fetal bovine serum, or medium devoid of fetal bovine serum but containing α1-antitrypsin.

## Cc1cccc(Cc2nnc(C(=O)[C@@H](NC(=O)[C@@H]3CCCN3C(=O)[C@@H](NC(=O)OCc3ccccc3)C(C)C)C(C)C)o2)c1 [CE-2072, benzyloxcarbonyl-L-valyl-N-[1-(2-[5-(3-methylbenzyl)-1,3,4-oxadiazolyl]carbonyl)-2-(S)-Methylpropyl]-L-prolinamide, reference compound]
[1]; CE-2072 60 μM in DMSO
  apoptosis induced by depletion of serum: blocked

## lyophilized α1-antitrypsin: lyophilized preparation of the serine protease inhibitor α1-antitrypsin
[1]; lyophilized AAT 50 μM
  apoptosis induced by depletion of serum: blocked

## α1-Antitrypsin: serine protease inhibitor α1-antitrypsin
[2]
  apoptosis associated with serum depletion: completely reverses
